# Results reported in patent US8440424B2, “Identification of antibiotic resistance using labelled antibiotics” (miacom Diagnostics GmbH, priority 2008, dated 2013).
# Read-outs that look alike come from different tables or passages of the source.
# Tests used:
# [1] = system: Vancomycin resistant SA (VRSA); assay: Binding of fluorescent labelled antibiotic, resistant vs non-resistant form: VRSA; parameters: species or system Staphylococcus aureus; settings: binding of labelled Vancomycin relative to non-resistant form
# Text: (§1) Another preferred application is the detection of the binding of Vancomycin to surface proteins of Staphylococcus aureus which are anchored to the cell wall peptidoglycan. Vancomycin resistant Staphylococci bind the antibiotic to such an extent that it renders Vancomycin ineffective. Labelled Vancomycin therefore will preferably bind to resistant organisms.
# (§2) An in-situ hybridisation protocol may be applied as laid down in patent application EP 06 021 267.7, which is incorporated herein by reference. The incubation with a labelled antibiotic may be performed at temperatures below the Tm of the hybridised probe. In a preferred embodiment the temperature is between about 25 and about 65° C., in a more preferred embodiment the temperature is between about 35° C. and about 59° C. In an even more preferred embodiment, the temperature is at about 52° C. The incubation time is preferably between about 1 and about 30 minutes. […]
# (§3) An antibiotic resistance, such as a resistance against penicillin, may be detected in a protocol comprising the steps:
# (§4) Table 4 indicates the alteration of the amount of detectable labelled antibiotics in clinically relevant micro-organisms in its resistant form relative to its non-resistant form. The amount is expressed in % change of fluorescence (decrease and increase, respectively) of an antibiotic which carries a fluorescent label.
# [2] = system: Vancomycin resistant Staph (VRS); assay: Binding of fluorescent labelled antibiotic, resistant vs non-resistant form: VRS; parameters: species or system Staphylococci (CNS); settings: increased binding of Vancomycin; VRS relative to non-resistant form; fluorescent label
# Text: as §1, §2, §3, §4
# [3] = system: Vancomycin intermediary SA (VISA); assay: Binding of fluorescent labelled antibiotic, resistant vs non-resistant form: VISA; parameters: species or system Staphylococcus aureus; settings: increased binding of Vancomycin; VISA relative to non-resistant form; fluorescent label
# Description: as §2, with “minutes. In a more preferred embodiment the incubation is made for about 15 minutes. After the incubation the slide may be submerged in 50% ethanol followed by a bath in pure ethanol. Both steps may be run for between about 1 and about 10 minutes. The preferred length of incubation is between about 2 and about 6 minutes. It is more preferred to incubate about 4 minutes.” for “minutes.”
# as §3, §4
# [4] = system: Vancomycin resistant Enterococci (VRE); assay: Binding of fluorescent labelled antibiotic, resistant vs non-resistant form: VRE; settings: reduction of vancomycin binding; VRE relative to non-resistant form; fluorescent label
# Description: as §2, with “minutes. In a more preferred embodiment the incubation is made for about 15 minutes. After the incubation the slide may be submerged in 50% ethanol followed by a bath in pure ethanol. Both steps may be run for between about 1 and about 10 minutes. The preferred length of incubation is between about 2 and about 6 minutes. It is more preferred to incubate about 4 minutes.” for “minutes.”
# as §3, §4
# [5] = system: Vancomycin resistant Enterococci (VRE); settings: stated as resistance mechanism; cited from earlier work
# [6] = system: High level Aminoglycoside Resistance in Enterococci (HLAR); assay: Binding of fluorescent labelled antibiotic, resistant vs non-resistant form: HLAR; settings: reduction in Streptomycin binding; HLAR Enterococci relative to non-resistant form; fluorescent label
# Description: as §2, with “minutes. In a more preferred embodiment the incubation is made for about 15 minutes. After the incubation the slide may be submerged in 50% ethanol followed by a bath in pure ethanol. Both steps may be run for between about 1 and about 10 minutes. The preferred length of incubation is between about 2 and about 6 minutes. It is more preferred to incubate about 4 minutes.” for “minutes.”
# as §3, §4
# 23S rRNA = settings: cited from earlier work
# [7] = system: Community acquired MRSA (CA-MRSA); format: binding, Staphylococcus aureus
# Description: The incubation with a labelled antibiotic may be performed at temperatures below the Tm of the hybridised probe. In a preferred embodiment the temperature is between about 25 and about 65° C., in a more preferred embodiment the temperature is between about 35° C. and about 59° C. In an even more preferred embodiment, the temperature is at about 52° C. The incubation time is preferably between about 1 and about 30 minutes. In a more preferred embodiment the incubation is made for about 15 minutes. After the incubation the slide may be submerged in 50% ethanol followed by a bath in pure ethanol. Both steps may be run for between about 1 and about 10 minutes. The preferred length of incubation is between about 2 and about 6 minutes. It is more preferred to incubate about 4 minutes. The slides may then be air-dried (e.g. on a hot plate) and the cells may be embedded in a balanced salt mounting medium.
# [8] = system: Extended Spectrum β-Lactamase (ESBL) Enterobacteriaceae; assay: Binding of fluorescent labelled clavulanic acid: ESBL Enterobacteriaceae; settings: increase, ESBL Enterobacteriaceae relative to non-resistant form
# Description: as §2, with “minutes. In a more preferred embodiment the incubation is made for about 15 minutes. After the incubation the slide may be submerged in 50% ethanol followed by a bath in pure ethanol. Both steps may be run for between about 1 and about 10 minutes. The preferred length of incubation is between about 2 and about 6 minutes. It is more preferred to incubate about 4 minutes.” for “minutes.”
# as §3, §4
# [9] = system: Extended Spectrum β-Lactamase (ESBL) Pseudomonas spp.; assay: Binding of fluorescent labelled clavulanic acid: ESBL Pseudomonas spp.; settings: increase, ESBL Pseudomonas spp. relative to non-resistant form
# Description: as §2, with “minutes. In a more preferred embodiment the incubation is made for about 15 minutes. After the incubation the slide may be submerged in 50% ethanol followed by a bath in pure ethanol. Both steps may be run for between about 1 and about 10 minutes. The preferred length of incubation is between about 2 and about 6 minutes. It is more preferred to incubate about 4 minutes.” for “minutes.”
# as §3, §4
# [10] = system: Extended Spectrum β-Lactamase (ESBL) Acinetobacter; assay: Binding of fluorescent labelled clavulanic acid: ESBL Acinetobacter; settings: increase, ESBL Acinetobacter relative to non-resistant form
# Description: as §2, with “minutes. In a more preferred embodiment the incubation is made for about 15 minutes. After the incubation the slide may be submerged in 50% ethanol followed by a bath in pure ethanol. Both steps may be run for between about 1 and about 10 minutes. The preferred length of incubation is between about 2 and about 6 minutes. It is more preferred to incubate about 4 minutes.” for “minutes.”
# as §3, §4
# [11] = system: Extended Spectrum β-Lactamase (ESBL) BCC; assay: Binding of fluorescent labelled clavulanic acid: ESBL BCC; settings: increase, ESBL BCC relative to non-resistant form
# Description: as §2, with “minutes. In a more preferred embodiment the incubation is made for about 15 minutes. After the incubation the slide may be submerged in 50% ethanol followed by a bath in pure ethanol. Both steps may be run for between about 1 and about 10 minutes. The preferred length of incubation is between about 2 and about 6 minutes. It is more preferred to incubate about 4 minutes.” for “minutes.”
# as §3, §4
# [12] = system: Extended Spectrum β-Lactamase (ESBL) Stenotrophomonas maltophilia; assay: Binding of fluorescent labelled clavulanic acid: ESBL Stenotrophomonas maltophilia; settings: increase, ESBL Stenotrophomonas maltophilia relative to non-resistant form
# Description: as §2, with “minutes. In a more preferred embodiment the incubation is made for about 15 minutes. After the incubation the slide may be submerged in 50% ethanol followed by a bath in pure ethanol. Both steps may be run for between about 1 and about 10 minutes. The preferred length of incubation is between about 2 and about 6 minutes. It is more preferred to incubate about 4 minutes.” for “minutes.”
# as §3, §4
# [13] = system: Methicillin Resistant Staphylococcus aureus (MRSA); assay: Binding of fluorescent labelled antibiotic, resistant vs non-resistant form: MRSA; settings: reduction of Penicillin binding; MRSA relative to non-resistant form; antibiotic carries a fluorescent label
# Description: as §2, with “minutes. In a more preferred embodiment the incubation is made for about 15 minutes. After the incubation the slide may be submerged in 50% ethanol followed by a bath in pure ethanol. Both steps may be run for between about 1 and about 10 minutes. The preferred length of incubation is between about 2 and about 6 minutes. It is more preferred to incubate about 4 minutes.” for “minutes.”
# as §3, §4
# [14] = system: Border.line oxacillin resistant SA (BORSA); assay: Binding of fluorescent labelled antibiotic, resistant vs non-resistant form: BORSA; parameters: species or system Staphylococcus aureus; settings: reduction of penicillin binding; BORSA relative to non-resistant form; fluorescent label
# Description: as §2, with “minutes. In a more preferred embodiment the incubation is made for about 15 minutes. After the incubation the slide may be submerged in 50% ethanol followed by a bath in pure ethanol. Both steps may be run for between about 1 and about 10 minutes. The preferred length of incubation is between about 2 and about 6 minutes. It is more preferred to incubate about 4 minutes.” for “minutes.”
# as §3, §4
# [15] = system: Oxacillin resistant SA (ORSA); assay: Binding of fluorescent labelled antibiotic, resistant vs non-resistant form: ORSA; parameters: species or system Staphylococcus aureus; settings: reduction of penicillin binding; ORSA relative to non-resistant form; fluorescent label
# Description: as §2, with “minutes. In a more preferred embodiment the incubation is made for about 15 minutes. After the incubation the slide may be submerged in 50% ethanol followed by a bath in pure ethanol. Both steps may be run for between about 1 and about 10 minutes. The preferred length of incubation is between about 2 and about 6 minutes. It is more preferred to incubate about 4 minutes.” for “minutes.”
# as §3, §4
molecule,measurement,setting,value
CN[C@H](CC(C)C)C(=O)N[C@H]1C(=O)N[C@@H](CC(N)=O)C(=O)N[C@H]2C(=O)N[C@H]3C(=O)N[C@H](C(=O)N[C@H](C(=O)O)c4cc(O)cc(O)c4-c4cc3ccc4O)[C@H](O)c3ccc(c(Cl)c3)Oc3cc2cc(c3O[C@@H]2O[C@H](CO)[C@@H](O)[C@H](O)[C@H]2O[C@H]2C[C@](C)(N)[C@H](O)[C@H](C)O2)Oc2ccc(cc2Cl)[C@H]1O [Vancomycin],Effect of resistance on fluorescence,[1],Increased
same,% Change in Fluorescenc,[2],>50%
same,% Change in Fluorescenc,[3],20-50%
same,% Change in Fluorescenc,[4],>80%
same,Reduced affinity to Van,[5],Reduced affinity to Van by 3 orders of magnitude
"[H]/N=C(/N)N[C@H]1[C@H](O)[C@@H](O)[C@H](O[C@@H]2O[C@@H](C)[C@](O)(C=O)[C@H]2O[C@@H]2O[C@@H](CO)[C@H](O)[C@@H](O)[C@@H]2NC)[C@@H](N/C(N)=N\[H])[C@@H]1O [Streptomycin, reference compound]",% Change in Fluorescenc,[6],>80%
same,Phenotype,"23S rRNA; 23S rRNA position 2661 ""G to C"", E. coli, when expressed with Smr, hyperaccurate S12 mutation",streptomycin dependent
"COc1cc(Cc2cnc(N)nc2N)cc(OC)c1OC [trimethoprim, Trimethoprim]",Effect of resistance on fluorescence,"[7]; CA-MRSA, binding capacity for the labelled antibiotic",Maintaims binding
O=C(O)[C@H]1/C(=C/CO)O[C@@H]2CC(=O)N21 [clavulanic acid],% Change in Fluorescenc,[8],>80%
same,% Change in Fluorescenc,[9],>80%
same,% Change in Fluorescenc,[10],>80%
same,% Change in Fluorescenc,[11],>80%
same,% Change in Fluorescenc,[12],>80%
Penicillin,% Change in Fluorescenc,[13],> to ≈80%
same,% Change in Fluorescenc,"[7]; reduction of penicillin binding, CA-MRSA relative to non-resistant form, antibiotic carries a fluorescent label",> to ≈80%
same,% Change in Fluorescenc,[14],> to ≈80%
same,% Change in Fluorescenc,[15],> to ≈80%
CC[C@H]1OC(=O)[C@H](C)[C@@H](O[C@H]2C[C@@](C)(OC)[C@@H](O)[C@H](C)O2)[C@H](C)[C@@H](O[C@@H]2O[C@H](C)C[C@H](N(C)C)[C@H]2O)[C@](C)(OC)C[C@@H](C)C(=O)[C@H](C)[C@@H](O)[C@]1(C)O [Clarithromycin],Phenotype,"23S rRNA; 23S rRNA position 2058 A to G, Helicobacter pylori",resistance
O=C(N[C@H](CO)[C@H](O)c1ccc([N+](=O)[O-])cc1)C(Cl)Cl [CAM],Phenotype,"23S rRNA; 23S rRNA position 2505 G to C (with A1067U and thiostrepton), E. coli, Saarma 1992, 1993",Hypersensitivity to CAM;
